The experiment concerns the target T1, MAGL (Homo sapiens, UniProt Q99685).
T1 sequence (Q99685 1-303): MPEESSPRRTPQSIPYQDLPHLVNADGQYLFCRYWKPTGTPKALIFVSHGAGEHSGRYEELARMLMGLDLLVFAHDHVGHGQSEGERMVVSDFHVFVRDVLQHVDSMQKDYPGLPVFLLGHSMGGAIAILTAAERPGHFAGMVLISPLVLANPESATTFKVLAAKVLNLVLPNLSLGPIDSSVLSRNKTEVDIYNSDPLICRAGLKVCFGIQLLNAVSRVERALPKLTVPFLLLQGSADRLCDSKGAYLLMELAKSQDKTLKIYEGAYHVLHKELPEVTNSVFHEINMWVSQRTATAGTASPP
Kind of experiment: 2-AG assay (MAGL inhibitory activity, hydrolysis of 2-arachidonoylglycerol followed by mass spectrometry). It counts as biochemical. The conditions noted are these: 15 min preincubation at RT, 8 μM 2-arachidonoylglycerol, 30 min at RT, arachidonic acid by MS. The protocol:
Compounds were profiled for MAGL inhibitory activity by determining the enzymatic activity by following the hydrolysis of the natural substrate 2-arachidonoylglycerol (2-AG) resulting in arachidonic acid, which can be followed by mass spectrometry. This assay is hereinafter abbreviated “2-AG assay”.
The 2-AG assay was carried out in 384 well assay plates (PP, Greiner Cat #784201) in a total volume of 20 μL. Compound dilutions were made in 100% DMSO (VWR Chemicals 23500.297) in a polypropylene plate in 3-fold dilution steps to give a final concentration range in the assay from 12.5 μM to […]. 0.25 μL compound dilutions (100% DMSO) were added to 9 μL MAGL in assay buffer (50 mM TRIS (GIBCO, 15567-027), 1 mM EDTA (Fluka, 03690-100 mL), 0.01% (v/v) Tween. After shaking, the plate was incubated for 15 min at RT. To start the reaction, 10 μL 2-arachidonoylglycerol in assay buffer was added. The final concentrations in the assay was […] and 8 μM 2-arachidonoylglyerol. After shaking and 30 min incubation at RT, the reaction was quenched by the addition of 40 μL of ACN containing 4 μM of d8-arachidonic acid. The amount of arachidonic acid was traced by an online SPE system (Agilent Rapidfire) coupled to a triple quadrupole mass spectrometer (Agilent 6460). A C18 SPE cartridge (G9205A) was used in an ACN/water liquid setup. The mass spectrometer was operated in negative electrospray mode following the mass transitions 303.1→259.1 for arachidonic acid and 311.1→267.0 for d8-arachidonic acid. The activity of the compounds was calculated based on the ratio of intensities [arachidonic acid/d8-arachidonic acid].
With `O=C1CO[C@H]2CCN(C(=O)N3CCC(c4ccn(-c5ccc(F)cc5)n4)CC3)C[C@H]2N1` [Example 20, (4aR,8aS)-6-(4-(1-(4-Fluorophenyl)-1H-pyrazol-3-yl)piperidine-1-carbonyl)hexahydro-2H-pyrido[4,3-b][1,4]oxazin-3(4H)-one], the IC50 was 147 nM. In the case of `O=C1CO[C@H]2CCN(C(=O)N3CC(OCc4c(Cl)cccc4Cl)C3)C[C@H]2N1` [Example 21, (4aR,8aS)-6-(3-((2,6-Dichlorobenzyl)oxy)azetidine-1-carbonyl)hexahydro-2H-pyrido[4,3-b][1,4]oxazin-3(4H)-one], the IC50 was found to be 27.8 nM.

`O=C1CO[C@H]2CCN(C(=O)N3CC(OCc4cc(Cl)cc(Cl)c4)C3)C[C@H]2N1` [Example 22, (4aR,8aS)-6-(3-((3,5-Dichlorobenzyl)oxy)azetidine-1-carbonyl)hexahydro-2H-pyrido[4,3-b][1,4]oxazin-3(4H)-one]: it took 13.4 nM to reach half-maximal inhibition (IC50).

For `Cc1c(CC2CCN(C(=O)N3CC[C@@H]4OCC(=O)N[C@@H]4C3)CC2)cncc1C1CC1` [Example 23, (4aR,8aS)-6-(4-((5-Cyclopropyl-4-methylpyridin-3-yl)methyl)piperidine-1-carbonyl)hexahydro-2H-pyrido[4,3-b][1,4]oxazin-3(4H)-one], the IC50 amounted to 119 nM. The result for `O=C1CO[C@H]2CCN(C(=O)N3CCC(OCc4ccc(C(F)(F)F)cc4)CC3)C[C@H]2N1` [Example 24, (4aR,8aS)-6-(4-((4-(Trifluoromethyl)benzyl)oxy)piperidine-1-carbonyl)hexahydro-2H-pyrido[4,3-b][1,4]oxazin-3(4H)-one] reads 62.1 nM; that for `O=C1CO[C@H]2CCN(C(=O)N3CCC(OCc4ccc(F)cc4Cl)CC3)C[C@H]2N1` [Example 25, (4aR,8aS)-6-(4-((2-Chloro-4-fluorobenzyl)oxy)piperidine-1-carbonyl)hexahydro-2H-pyrido[4,3-b][1,4]oxazin-3(4H)-one], 72.5 nM; that for `O=C1CO[C@H]2CCN(C(=O)N3CCC(OCc4ccc(C(F)(F)F)cc4Cl)CC3)C[C@H]2N1` [Example 26, (4aR,8aS)-6-(4-((2-chloro-4-(trifluoromethyl)benzyl)oxy)piperidine-1-carbonyl)hexahydro-2H-pyrido[4,3-b][1,4]oxazin-3(4H)-one], 5.2 nM.

On to `COc1cc(COC2CN(C(=O)N3CC[C@@H]4OCC(=O)N[C@@H]4C3)C2)ccc1F` [Example 30, (4aR,8aS)-6-(3-((4-Fluoro-3-methoxybenzyl)oxy)azetidine-1-carbonyl)hexahydro-2H-pyrido[4,3-b][1,4]oxazin-3(4H)-one], for which the IC50 was 77.3 nM. The result for `O=C1CO[C@H]2CCN(C(=O)N3CC(OCc4ccc(S(F)(F)(F)(F)F)cc4)C3)C[C@H]2N1` [Example 31, (4aR,8aS)-6-(3-((4-(Pentafluoro-16-sulfanyl)benzyl)oxy)azetidine-1-carbonyl)hexahydro-2H-pyrido[4,3-b][1,4]oxazin-3(4H)-one] reads 5.8 nM.

For `O=C1CO[C@H]2CCN(C(=O)N3CC(OCc4ccccc4OC(F)(F)F)C3)C[C@H]2N1` [Example 32, (4aR,8aS)-6-(3-((2-(Trifluoromethoxy)benzyl)oxy)azetidine-1-carbonyl)hexahydro-2H-pyrido[4,3-b][1,4]oxazin-3(4H)-one], the IC50 was 22.5 nM. The molecule `O=C1CO[C@H]2CCN(C(=O)N3CC(OCc4ccc(Cl)cc4OC(F)(F)F)C3)C[C@H]2N1` [Example 33, (4aR,8aS)-6-(3-((4-Chloro-2-(trifluoromethoxy)benzyl)oxy)azetidine-1-carbonyl)hexahydro-2H-pyrido[4,3-b][1,4]oxazin-3(4H)-one] returned an IC50 of 5.9 nM. For the molecule `Cc1ccc(C(F)(F)F)cc1COC1CN(C(=O)N2CC[C@@H]3OCC(=O)N[C@@H]3C2)C1` [Example 34, (4aR,8aS)-6-(3-((2-Methyl-5-(trifluoromethyl)benzyl)oxy)azetidine-1-carbonyl)hexahydro-2H-pyrido[4,3-b][1,4]oxazin-3(4H)-one], the IC50 was 8 nM. As for `O=C1CO[C@H]2CCN(C(=O)N3CCC(Cc4ccc(C(F)(F)F)c(-c5ccccc5)c4)CC3)C[C@H]2N1` [Example 35, (4aR,8aS)-6-[4-[[3-Phenyl-4-(trifluoromethyl)phenyl]methyl]piperidine-1-carbonyl]-4,4a,5,7,8,8a-hexahydropyrido[4,3-b][1,4]oxazin-3-one], it took 4.6 nM to reach half-maximal inhibition (IC50).

Consider `O=C1CO[C@H]2CCN(C(=O)N3CCC(Cc4ccc(C(F)(F)F)cc4C(F)(F)F)CC3)C[C@H]2N1` [Example 36, (4aR,8aS)-6-[4-[[2,4-bis(Trifluoromethyl)phenyl]methyl]piperidine-1-carbonyl]-4,4a,5,7,8,8a-hexahydropyrido[4,3-b][1,4]oxazin-3-one], for which half-maximal inhibition (IC50) was put at 9.4 nM. Regarding `Cc1cc(CC2CCN(C(=O)N3CC[C@@H]4OCC(=O)N[C@@H]4C3)CC2)cnc1C(F)(F)F` [Example 37, (4aR,8aS)-6-(4-((5-Methyl-6-(trifluoromethyl)pyridin-3-yl)methyl)piperidine-1-carbonyl)hexahydro-2H-pyrido[4,3-b][1,4]oxazin-3(4H)-one], 31.7 nM corresponded to half-maximal inhibition (IC50).

In turn, `O=C1CO[C@H]2CCN(C(=O)N3CC(OCc4ccc(OC(F)F)cc4)C3)C[C@H]2N1` [Example 40, (4aR,8aS)-6-(3-((4-(Difluoromethoxy)benzyl)oxy)azetidine-1-carbonyl)hexahydro-2H-pyrido[4,3-b][1,4]oxazin-3(4H)-one] displayed an IC50 of 46.9 nM. As to `O=C1CO[C@H]2CCN(C(=O)C3CC(OCc4ccc(C(F)(F)F)cc4Cl)C3)C[C@H]2N1` (stereo partly drawn) [Example 41, (4aR,8aS)-6-(3-((2-Chloro-4-(trifluoromethyl)benzyl)oxy)cyclobutane-1-carbonyl)hexahydro-2H-pyrido[4,3-b][1,4]oxazin-3(4H)-one], 774 nM corresponded to half-maximal inhibition (IC50). The result for `O=C1CO[C@H]2CCN(C(=O)[C@H]3C[C@H](OCc4ccc(C(F)(F)F)cc4Cl)C3)C[C@H]2N1` [Example 42, (4aR,8aS)-6-(3-((2-Chloro-4-(trifluoromethyl)benzyl)oxy)cyclobutane-1-carbonyl)hexahydro-2H-pyrido[4,3-b][1,4]oxazin-3(4H)-one] reads 261 nM. The result for `O=C1CO[C@H]2CCN(C(=O)N3CC(OCc4ccc(C(F)(F)F)cn4)C3)C[C@H]2N1` [Example 43, (4aR,8aS)-6-(3-((5-(Trifluoromethyl)pyridin-2-yl)methoxy)azetidine-1-carbonyl)hexahydro-2H-pyrido[4,3-b][1,4]oxazin-3(4H)-one] reads 159 nM; that for `O=C1CO[C@H]2CCN(C(=O)N3CC(OCc4ccc(OC(F)(F)F)cc4)C3)C[C@H]2N1` [Example 44, (4aR,8aS)-6-(3-((4-(Trifluoromethoxy)benzyl)oxy)azetidine-1-carbonyl)hexahydro-2H-pyrido[4,3-b][1,4]oxazin-3(4H)-one], 23.6 nM; that for `O=C1CO[C@H]2CCN(C(=O)N3CC(C(=O)Nc4ccc(F)cc4Cl)C3)C[C@H]2N1` [Example 45, N-(2-chloro-4-fluorophenyl)-1-((4aR,8aS)-3-oxooctahydro-2H-pyrido[4,3-b][1,4]oxazine-6-carbonyl)azetidine-3-carboxamide], 1250 nM.

The values are drawn from patent publication US20210094973A1, “HETEROCYCLIC COMPOUNDS” (Hoffmann-La Roche Inc., priority 2019, published 2021).
